# Assay: Isomerization of (+)-catechin to (+)-epicatechin
# Format: physicochemical
# Details: equilibrium mixture from isomerization of (+)-catechin
# From the text: While the above examples were specifically directed to the isomerization of (−)-epicatechin to (−)-catechin, it will be understood that the same processes can and will result in the isomerization of (+)-catechin to (+)-epicatechin. It will further be understood that the kinetics for the isomerization of (+)-catechin to (+)-epicatechin are similar to those for the isomerization of (−)-epicatechin to (−)-catechin, viz., the equilibrium point for a given set of temperature and pH parameters is essentially the same for either isomerization, and the equilibrium mixture resulting from the isomerization of (+)-catechin is about 70% (+)-catechin and about 30% (+)-epicatechin, with a molar ratio of (+)-epicatechin to (+)-catechin of about 1:2. Indeed, we have observed that the isomerization of (+)-catechin to (+)-epicatechin favors the same equilibrium point as the isomerization of (−)-epicatechin to (−)-catechin, that is, the molar ration of 1:2 (+)-epicatechin:(+)-catechin.
compound,measurement,value
Oc1cc(O)c2c(c1)O[C@H](c1ccc(O)c(O)c1)[C@@H](O)C2 [(+)-catechin],(+)-catechin in equilibrium mixture,about 70%
same,(+)-epicatechin in equilibrium mixture,about 30%
